From ChEMBL document CHEMBL5260792, “Benzophenone: a ubiquitous scaffold in medicinal chemistry” (Medchemcomm, 2018)
≈ marks a conversion by molar mass, not a printed value. Each block holds one compound with its values, some of them ahead of it.

Assays:
[1] = Anti-inflammatory activity in human PBMC cells assessed as inhibition of LPS-induced […] production; assay type: functional, cell-based
[2] = Anti-inflammatory activity in human PBMC cells assessed as inhibition of LPS-induced TNF-alpha production; assay type: functional, cell-based
[3] = system: Human immunodeficiency virus 1; assay: Antiviral activity against HIV-1 V108I mutant; assay type: functional, organism-based
[4] = system: Human immunodeficiency virus 1; assay: Antiviral activity against HIV-1 harboring K103N/V108I double mutant; assay type: functional, organism-based
[5] = system: Human immunodeficiency virus 1; assay: Antiviral activity against HIV-1 assessed as reduction in virus-induced cytopathic effect; assay type: functional, organism-based
[6] = system: Human immunodeficiency virus 1; assay: Antiviral activity against HIV-1 harboring K103N/P225H double mutant; assay type: functional, organism-based
[7] = system: Human immunodeficiency virus 1; assay: Antiviral activity against HIV-1 P236L mutant; assay type: functional, organism-based
[8] = system: Human immunodeficiency virus 1; assay: Antiviral activity against HIV-1 E138K mutant; assay type: functional, organism-based
[9] = system: Human immunodeficiency virus 1; assay: Antiviral activity against HIV-1 harboring V108I/Y181C double mutant; assay type: functional, organism-based
[10] = system: Human immunodeficiency virus 1; assay: Antiviral activity against HIV-1 V106I mutant; assay type: functional, organism-based
[11] = system: Human immunodeficiency virus 1; assay: Antiviral activity against HIV-1 harboring K103N/L100I double mutant; assay type: functional, organism-based
[12] = system: Human immunodeficiency virus 1; assay: Antiviral activity against HIV-1 Y181C mutant; assay type: functional, organism-based
[13] = system: Human immunodeficiency virus 1; assay: Antiviral activity against HIV-1 G190A mutant; assay type: functional, organism-based
[14] = system: Human immunodeficiency virus 1; assay: Antiviral activity against HIV-1 harboring K103N/Y181C double mutant; assay type: functional, organism-based
[15] = system: Human immunodeficiency virus 1; assay: Antiviral activity against HIV-1 L100I mutant; assay type: functional, organism-based
[16] = system: Human immunodeficiency virus 1; assay: Antiviral activity against HIV-1 K103N mutant; assay type: functional, organism-based
[17] = system: Human immunodeficiency virus 1; assay: Antiviral activity against HIV-1 P225H mutant; assay type: functional, organism-based
[18] = system: Human immunodeficiency virus 1; assay: Antiviral activity against HIV-1 Y188C mutant; assay type: functional, organism-based
[19] = system: Human immunodeficiency virus 1; assay: Antiviral activity against HIV-1 K101E mutant; assay type: functional, organism-based
[20] = target: T1, Glutathione S-transferase A1 (Homo sapiens, UniProt P08263); assay: Inhibition of recombinant human GSTA1-1
T1 sequence (P08263 whole entry): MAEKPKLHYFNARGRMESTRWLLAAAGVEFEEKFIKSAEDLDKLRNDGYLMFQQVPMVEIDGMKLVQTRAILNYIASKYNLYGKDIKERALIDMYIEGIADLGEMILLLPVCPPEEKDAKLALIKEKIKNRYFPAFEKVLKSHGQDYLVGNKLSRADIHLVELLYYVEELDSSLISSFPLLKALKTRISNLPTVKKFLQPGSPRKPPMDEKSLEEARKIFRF

[21] = target: Mitogen-activated protein kinase 14 (Homo sapiens, UniProt Q16539); assay: Inhibition of P38alphaMAPK (unknown origin)
MCF7 = assay: Antiproliferative activity against human MCF7 cells; assay type: functional, cell-based
Leishmania = assay: Antileishmanial activity against Leishmania assessed as reduction in parasite growth; assay type: functional, organism-based
[22] = system: Human immunodeficiency virus 1; assay: Antiviral activity against HIV-1; assay type: functional, organism-based
[23] = Inhibition of FTase (unknown origin) by Perkin elmer analysis; parameters: species or system Homo sapiens
Plasmodium falciparum [24] = assay: Antiplasmodial activity against Plasmodium falciparum assessed as reduction in parasite growth; assay type: functional, organism-based
Plasmodium falciparum [25] = assay: In vivo antiplasmodial activity against Plasmodium falciparum infected in mouse model; assay type: functional
K562 = assay: Antiproliferative activity against human K562 cells assessed as reduction in cell viability by MTT assay; assay type: functional, cell-based
CCRF-CEM = assay: Antiproliferative activity against human CEM cells assessed as reduction in cell viability by MTT assay; assay type: functional, cell-based
Rattus norvegicus [26] = assay: Anti-hyperlipidemic activity in rat assessed as reduction in triglyceride level at 15 mg/kg, po measured after 18 hrs; assay type: functional; parameters: scale not given: the % may be the effect or the level left
Rattus norvegicus [27] = assay: Anti-hyperlipidemic activity in rat assessed as reduction in total cholesterol level at 15 mg/kg, po measured after 18 hrs; assay type: functional; parameters: scale not given: the % may be the effect or the level left
[28] = Antiproliferative activity against mouse DLA cell expressing VEGF-A by MTT assay; assay type: functional, cell-based
Ehrlich = assay: Antiproliferative activity against mouse EAC cell expressing VEGF-A by MTT assay; assay type: functional, cell-based
[29] = Cytotoxicity against human HUVEC cells assessed as inhibition of cell growth; assay type: toxicity, cell-based

Sequence of Mitogen-activated protein kinase 14 (Q16539 whole entry): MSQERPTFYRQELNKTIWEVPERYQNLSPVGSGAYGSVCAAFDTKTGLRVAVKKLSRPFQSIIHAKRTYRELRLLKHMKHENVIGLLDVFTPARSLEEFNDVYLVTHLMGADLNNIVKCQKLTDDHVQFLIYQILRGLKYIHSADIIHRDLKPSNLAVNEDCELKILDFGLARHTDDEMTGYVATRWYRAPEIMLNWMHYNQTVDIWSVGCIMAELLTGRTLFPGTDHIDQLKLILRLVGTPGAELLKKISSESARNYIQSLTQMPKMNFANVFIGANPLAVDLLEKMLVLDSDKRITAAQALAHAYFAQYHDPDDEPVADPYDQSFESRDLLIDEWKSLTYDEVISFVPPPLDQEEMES

Compound: Cc1cc(F)ccc1Nc1ccc(C(=O)c2ccccc2C)c(Cl)c1
- IC50 ([1]; Homo sapiens, PBMC): 0.014 µM
- IC50 [2]: 0.004 µM

Compound: Cc1cc(S(N)(=O)=O)ccc1NC(=O)COc1ccc(Cl)cc1C(=O)c1cccc(C#N)c1
- IC50 [3]: < 0.01 µM
- IC50 [4]: < 0.01 µM
- IC50 [5]: < 0.002 µM
- IC50 [6]: < 0.01 µM
- IC50 [7]: < 0.01 µM
- IC50 [8]: < 0.01 µM
- IC50 [9]: < 0.01 µM
- IC50 [10]: < 0.01 µM
- IC50 [11]: < 0.01 µM
- IC50 [12]: < 0.01 µM
- IC50 [13]: < 0.01 µM
- IC50 [14]: < 0.01 µM
- IC50 [15]: < 0.01 µM
- IC50 [16]: < 0.01 µM
- IC50 [17]: < 0.01 µM
- IC50 [18]: < 0.01 µM
- IC50 [19]: < 0.01 µM

Compound: Cc1cc(OCCCS(N)(=O)=O)ccc1NC(=O)COc1ccc(Cl)cc1C(=O)c1cc(F)cc(C(F)(F)F)c1
- IC50 [3]: < 0.01 µM
- IC50 [4]: < 0.01 µM
- IC50 [5]: < 0.002 µM
- IC50 [6]: < 0.01 µM
- IC50 [7]: < 0.01 µM
- IC50 [8]: < 0.01 µM
- IC50 [9]: < 0.01 µM
- IC50 [10]: < 0.01 µM
- IC50 [11]: < 0.01 µM
- IC50 [12]: < 0.01 µM
- IC50 [13]: < 0.01 µM
- IC50 [14]: < 0.01 µM
- IC50 [15]: < 0.01 µM
- IC50 [16]: < 0.01 µM
- IC50 [17]: < 0.01 µM
- IC50 [18]: < 0.01 µM
- IC50 [19]: < 0.01 µM

Compound: Cc1cc(S(N)(=O)=O)ccc1NC(=O)COc1ccc(Cl)cc1C(=O)c1cc(F)cc(C(F)(F)F)c1
- IC50 [3]: < 0.01 µM
- IC50 [4]: < 0.01 µM
- IC50 [5]: < 0.002 µM
- IC50 [6]: < 0.01 µM
- IC50 [7]: < 0.01 µM
- IC50 [8]: < 0.01 µM
- IC50 [9]: < 0.01 µM
- IC50 [10]: < 0.01 µM
- IC50 [11]: < 0.01 µM
- IC50 [12]: < 0.01 µM
- IC50 [13]: < 0.01 µM
- IC50 [14]: < 0.01 µM
- IC50 [15]: < 0.01 µM
- IC50 [16]: < 0.01 µM
- IC50 [17]: < 0.01 µM
- IC50 [18]: < 0.01 µM
- IC50 [19]: < 0.01 µM

Compound: COc1ccc(C#CC(C)(C)N)cc1C(=O)c1ccc(Nc2ccc(F)cc2F)cc1
- IC50 [21]: 0.014 µM

Compound: Cc1cc(C(=O)NC2CC2)ccc1-c1ccc(C(=O)c2cccc(CCC(O)CO)c2)cc1 (centres undefined)
- IC50 [21]: 0.027 µM

Compound: O=C(COc1ccc(C(=O)c2ccccc2)cc1)c1ccc(Cl)c(Cl)c1
- IC50 (Leishmania): 1.19 µg/mL (≈ 3.09 µM)

Compound: Cc1cc(C(=O)c2cccc(Br)c2)ccc1OCC(=O)NNC(=O)C1CN(Cc2ccccc2)CCO1 (centres undefined)
- IC50 (MCF7): 7.1 µM

Compound: CN(C)CCN(C)C(C(=O)Nc1ccc(NC(=O)/C=C/c2ccc(-c3ccc([N+](=O)[O-])cc3)o2)cc1C(=O)c1ccccc1)c1ccccc1 (centres undefined)
- IC50 [23]: 0.021 µM
- IC50 (Plasmodium falciparum [24]): 0.032 µM
- ED50 (Plasmodium falciparum [25]): 16 mg/kg

Compound: Cc1cccc(C(=O)c2cc(Cl)ccc2OCC(=O)Nc2ccc([N+](=O)[O-])cc2C)c1
- EC50 [22]: 0.0042 µM

Compound: O=C(c1ccccc1)c1cccc(NC(=O)c2ccc(-c3cccc(O)c3)o2)c1
- Activity (Rattus norvegicus [26]): 84%
- Activity (Rattus norvegicus [27]): 88%

Compound: COc1ccc(-c2csc(NC(=O)COc3ccc(C(=O)c4ccc(F)cc4C)cc3C)n2)cc1
- IC50 [28]: 5 µM
- IC50 (Ehrlich): 5 µM

Compound: COc1ccc(C(=O)c2ccc(OCC(=O)N3CCC(CCCC4CCN(C(=S)c5ccc(Cl)cc5)CC4)CC3)cc2)c(OC)c1
- IC50 (K562): 1.6 µM
- IC50 (CCRF-CEM): 1.6 µM

Compound: CC(C)(C)c1[nH]cnc1/C=c1\[nH]c(=O)/c(=C/c2ccccc2)[nH]c1=O [PLINABULIN]
- IC50 [29]: 0.01 µM

Next, values leading:

- IC50 [1]: 0.226 µM
- IC50 [2]: 0.159 µM
Compound: Nc1ccccc1Nc1ccc(C(=O)c2ccccc2)cc1

- IC50 ([1]; Homo sapiens, PBMC): 0.014 µM
- IC50 [2]: 0.004 µM
Compound: Cc1ccccc1C(=O)c1ccc(Nc2ccccc2N)cc1Cl

- IC50 [20]: 0.18 µM
Compound: O=C(c1ccccc1O)c1cc(Br)ccc1O

- IC50 ([1]; Homo sapiens, PBMC): 0.014 µM
- IC50 [2]: 0.004 µM
Compound: Cc1ccccc1C(=O)c1ccc(Nc2ccc(Br)cc2N)cc1Cl

- IC50 (MCF7): 9.3 µM
Compound: Cc1cccc(C(=O)c2ccc(OCC(=O)NNC(=O)C3CN(Cc4ccccc4)CCO3)c(C)c2)c1 (centres undefined)

- EC50 [22]: 0.0029 µM
Compound: Cc1cc(C)cc(C(=O)c2cc(Cl)ccc2OC(C)C(=O)Nc2ccc(S(N)(=O)=O)cc2)c1 (centres undefined)

- IC50 (K562): 1.6 µM
- IC50 (CCRF-CEM): 1.6 µM
Compound: COc1ccc(C(=O)c2ccc(OCC(=O)N3CCC(CCCC4CCN(C(=O)c5ccc(Cl)cc5)CC4)CC3)cc2)c(OC)c1
